Experimental data as given in patent US20210276977A1, “BICYCLIC INHIBITORS OF HISTONE DEACETYLASE” (Alkermes, Inc., priority 2018, published 2021).

What was measured:
Full length Human HDAC2 = biological target: T1, Full length Human HDAC2 (Homo sapiens, UniProt Q92769); assay: HDAC2 enzymatic assay (deacetylation of FAM-labeled peptide substrate, microfluidic electrophoresis); assay type: biochemical; settings: recombinant enzymatic assay, Table 2, class symbols
T1 construct: Full length Human HDAC2; FLAG (C); host or cells: baculovirus expression system
T1 sequence (Q92769 whole entry): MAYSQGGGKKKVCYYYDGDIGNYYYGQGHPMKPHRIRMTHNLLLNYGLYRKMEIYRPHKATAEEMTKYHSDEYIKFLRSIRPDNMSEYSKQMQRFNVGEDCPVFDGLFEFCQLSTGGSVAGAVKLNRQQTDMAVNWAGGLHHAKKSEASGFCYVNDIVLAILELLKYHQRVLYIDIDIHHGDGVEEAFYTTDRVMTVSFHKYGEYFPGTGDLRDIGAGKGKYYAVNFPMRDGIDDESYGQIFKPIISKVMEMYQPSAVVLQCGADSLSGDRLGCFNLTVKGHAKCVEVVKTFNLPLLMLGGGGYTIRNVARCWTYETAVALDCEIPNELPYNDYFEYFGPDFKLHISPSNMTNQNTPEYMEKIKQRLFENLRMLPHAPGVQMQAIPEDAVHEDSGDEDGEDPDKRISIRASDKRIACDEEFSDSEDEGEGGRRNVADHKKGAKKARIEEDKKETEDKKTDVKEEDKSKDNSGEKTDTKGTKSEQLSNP
Procedure: (§1) HDAC2 and HDAC1 Enzymatic Assay (HDAC2 and HDAC1 IC50 Data)
(§2) The following describes an assay protocol for measuring the deacetylation of a peptide substrate by HDAC2 or HDAC1.
(§3) HD AC protein composition and respective substrate peptides are summarized below.
(§4) HD AC reactions are assembled in 384 well plates (Greiner) in a total volume of 20 μL as following:
(§5) HDAC proteins are pre-diluted in the assay buffer comprising: 100 mM HEPES, pH 7.5, 0.1% BSA, 0.01% Triton X-100, 25 mM KCl and dispensed into 384 well plate (10 uL per well).
(§6) Test compounds are serially pre-diluted in DMSO and added to the protein samples by acoustic dispensing (Labcyte Echo). Concentration of DMSO is equalized to 1% in all samples.
(§7) Control samples (0%-inhibition in the absence of inhibitor, DMSO only) and 100%-inhibition (in the absence of enzyme) are assembled in replicates of four and used to calculate the %-inhibition in the presence of compounds.
(§8) At this step compounds can be pre-incubated with enzyme if desired.
(§9) The reactions are initiated by addition of 10 uL of the FAM-labeled substrate peptide pre-diluted in the same assay buffer. Final concentration of substrate peptide is 1 uM (HDAC1-2).
(§10) The reactions are allowed to proceed at room temperature. Following incubation, the reactions are quenched by addition of 50 μL of termination buffer (100 mM HEPES, pH7.5, 0.01% Triton X-100, 0.1% SDS). Terminated plates are analyzed on a microfluidic electrophoresis instrument (Caliper LabChip® 3000, Caliper Life Sciences/Perkin Elmer) which enables electrophoretic separation of de-acetylated product from acetylated substrate. A change in the relative intensity of the peptide substrate and product is the parameter measured. Activity in each test sample is determined as the product to sum ratio (PSR): P/(S+P), where P is the peak height of the product, and S is the peak height of the substrate. Percent inhibition (Pinh) is determined using the following equation: Pinh=(PSR0% inh−PSRcompound)/(PSR0% inh−PSR100% inh)*100, in which: PSRcompound is the product/sum ratio in the presence of compound, PSR0% inh is the product/sum ratio in the absence of compound and the PSR100% inh is the product/sum ratio in the absence of the enzyme. To determine IC50 of compounds (50%-inhibition) the %-inh data (Pinh versus compound concentration) are fit by a 4 parameter sigmoid dose-response model using XLfit software (IDBS).
(§11) In the table, “A” indicates a IC50 value of less than 0.5 μM; “B” a IC50 value from 0.5 μM to 1.0 μM; “C” a IC50 value of greater than 1.0 μM and less than or equal to 2.0 μM; and “D” indicates an IC50 value of greater than 2.0 μM. NT=Not Tested.

Full length Human HDAC1 = biological target: T2, Full length Human HDAC1 (Homo sapiens, UniProt Q13547); assay: HDAC1 enzymatic assay (deacetylation of FAM-labeled peptide substrate, microfluidic electrophoresis); assay type: biochemical; settings: recombinant enzymatic assay, Table 2, class symbols
T2 construct: Full length Human HDAC1; His (C); FLAG (C); host or cells: baculovirus expression system
T2 sequence (Q13547 whole entry): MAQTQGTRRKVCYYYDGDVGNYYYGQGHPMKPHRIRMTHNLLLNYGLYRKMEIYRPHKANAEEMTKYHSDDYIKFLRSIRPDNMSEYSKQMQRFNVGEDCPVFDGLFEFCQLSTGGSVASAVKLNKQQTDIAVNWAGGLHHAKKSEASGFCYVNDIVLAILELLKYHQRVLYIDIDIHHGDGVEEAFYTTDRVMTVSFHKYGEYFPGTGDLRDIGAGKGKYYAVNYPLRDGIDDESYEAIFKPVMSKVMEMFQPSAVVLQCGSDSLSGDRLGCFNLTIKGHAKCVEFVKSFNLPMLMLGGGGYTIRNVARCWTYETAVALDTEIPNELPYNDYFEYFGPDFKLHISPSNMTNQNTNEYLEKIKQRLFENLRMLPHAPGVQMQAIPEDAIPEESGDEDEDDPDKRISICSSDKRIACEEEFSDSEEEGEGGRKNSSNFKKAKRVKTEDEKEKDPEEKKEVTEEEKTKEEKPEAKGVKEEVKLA
Procedure: as §1, §2, §3, §4, §5, §6, §7, §8, §9, §10, §11

HDAC2 = biological target: T3, HDAC2 (Homo sapiens, UniProt Q92769); assay: HDAC2 Enzymatic Inhibition Assay in SH-SY5Y Cell Lysate with an Exogenous Substrate (HDAC-Glo 2); assay type: cell-based; settings: SH-SY5Y cells, five hours incubation, Table 3, class symbols
T3 construct: host or cells: SH-SY5Y cells
T3 sequence (Q92769 whole entry): as the sequence (Q92769 whole entry) above
Procedure: HDAC2 Enzymatic Inhibition Assay in SH-SY5Y Cell Lysate with an Exogenous Substrate
SH-SY5Y cells (Sigma) were cultured in Eagle's Modified Essential Medium supplemented with 10% fetal bovine serum and pen/strep. Twenty-four hours prior to compound dosing 20 uL of cells were plated in white 384 well plates at a density of 1,500 cells/well. Compounds were serially diluted in neat DMSO and then diluted 1:100 v/v into media without FBS and mixed. Media was removed from the plated cells and the diluted compounds in serum free media (1% v/v final DMSO) were added and incubated at 37° C. for five hours. Ten uL of HDAC-Glo 2 reagent with 0.1% Triton X-100 was then added, the plate was mixed and allowed to develop at room temperature for 100 minutes. Plates were then read with a Spectramax LMax luminometer employing a 0.4 s integration time. Dose response curves were constructed with normalized data where CI-994 at 100 uM was defined as 100% inhibition and DMSO alone as 0% inhibition.
as §11

Structure (SMILES)	IC50 (Full length Human HDAC2)	IC50 (Full length Human HDAC1)	IC50 (HDAC2)
Nc1ccc(-c2ccc(F)cc2F)nc1NC(=O)N1CC(Cc2cccnn2)C1 [Compound 23]	500 to 1000 nM	1000 to 2000 nM	500 to 1000 nM
Nc1ccc(-c2ccc(F)cc2F)nc1NC(=O)N1CC(Oc2cccnc2)C1 [Compound 28]	–	–	> 2000 nM
Nc1ccc(-c2ccc(F)cc2F)nc1NC(=O)N1CC(OCc2ccccn2)C1 [Compound 29]	–	–	> 2000 nM
Nc1ccc(-c2ccc(F)cc2F)nc1NC(=O)N1CC(C(F)c2ncc(F)cn2)C1 (stereo not drawn) [Compound 41]	–	–	1000 to 2000 nM
Nc1ccc(-c2ccc(F)cc2F)nc1NC(=O)N1CC(Cc2cccc3nccn23)C1 [Compound 48]	–	–	> 2000 nM
Nc1ccc(-c2ccc(F)cc2F)nc1NC(=O)N1CC(Cc2ccc(C(F)(F)F)cn2)C1 [Compound 49]	–	–	> 2000 nM
Cc1ccn(CC2CN(C(=O)Nc3nc(-c4ccc(F)cc4F)ccc3N)C2)n1 [Compound 53]	–	–	> 2000 nM
CCC(c1ncccn1)C1CN(C(=O)Nc2nc(-c3ccc(F)cc3F)ccc2N)C1 (stereo not drawn) [Compound 56]	–	–	> 2000 nM
CC(c1ncccn1)C1CN(C(=O)Nc2nc(-c3ccccc3F)ccc2N)C1 (stereo not drawn) [Compound 58]	–	–	1000 to 2000 nM
CC(F)(c1ncccn1)C1CN(C(=O)Nc2nc(-c3ccc(F)cc3F)ccc2N)C1 (stereo not drawn) [Compound 60]	–	–	> 2000 nM
Cc1cnc(CC2CN(C(=O)Nc3nc(-c4ccc(F)s4)ccc3N)C2)o1 [Compound 62]	–	–	> 2000 nM
Cc1cnc(CC2CN(C(=O)Nc3nc(-c4ccc(F)cc4)ccc3N)C2)o1 [Compound 63]	–	–	1000 to 2000 nM
Cc1cnc(CC2CN(C(=O)Nc3nc(-c4ccc(F)s4)ccc3N)C2)nc1 [Compound 67]	–	–	500 to 1000 nM
Nc1ccc(-c2ccc(F)cc2)nc1NC(=O)N1CC(C(F)(F)c2ccccn2)C1 [Compound 75]	–	–	> 2000 nM
Nc1ccc(-c2ccc(F)cc2)nc1NC(=O)N1CC(Cc2ccc(C(F)(F)F)cn2)C1 [Compound 85]	–	–	> 2000 nM

The remaining lines, values ahead:

IC50 (Full length Human HDAC2)	IC50 (Full length Human HDAC1)	IC50 (HDAC2)	Structure (SMILES)
500 to 1000 nM	< 500 nM	500 to 1000 nM	Nc1ccc(-c2ccc(F)cc2F)nc1NC(=O)N1CC(Cc2ncc(F)cn2)C1 [Compound 21]
500 to 1000 nM	500 to 1000 nM	500 to 1000 nM	Nc1ccc(-c2ccc(F)cc2F)nc1NC(=O)N1CC(Cc2ncco2)C1 [Compound 22]
–	–	> 2000 nM	Cc1cnc(CC2CN(C(=O)Nc3nc(-c4ccc(F)cc4F)ccc3N)C2)s1 [Compound 25]
–	–	1000 to 2000 nM	Nc1ccc(-c2ccc(F)cc2F)nc1NC(=O)N1CC(Cc2ccncn2)C1 [Compound 32]
–	–	> 2000 nM	Cc1cc(C)nc(CC2CN(C(=O)Nc3nc(-c4ccc(F)cc4F)ccc3N)C2)n1 [Compound 50]
–	–	> 2000 nM	Cc1cn(CC2CN(C(=O)Nc3nc(-c4ccc(F)cc4F)ccc3N)C2)cn1 [Compound 51]
–	–	> 2000 nM	Cc1cncn1CC1CN(C(=O)Nc2nc(-c3ccc(F)cc3F)ccc2N)C1 [Compound 52]
–	–	1000 to 2000 nM	Cc1ccnn1CC1CN(C(=O)Nc2nc(-c3ccc(F)cc3F)ccc2N)C1 [Compound 54]
–	–	> 2000 nM	Cc1cnc(CC2CN(C(=O)Nc3nc(-c4ccc(F)cc4F)ccc3N)C2)o1 [Compound 55]
